Here are results for 13 compounds from patent publication US20230043863A1, “HETEROAROMATIC DERIVATIVES FOR USE AS REGULATOR, PREPARATION METHOD THEREFOR AND USE THEREOF” (JIANGSU HANSOH PHARMACEUTICAL GROUP CO., LTD., priority 2018, published 2023).

Molecules are shown by their SMILES.

One assay has as its target TYK2 (Homo sapiens, UniProt P29597). The experiment in a line: JAK kinase activity inhibition, TR-FRET (TYK2). It counts as biochemical. Particulars: TR-FRET kinase assay. Put shortly:
(§1)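 TR-FRET read (≈620 and 665 nm) after EDTA quench and 1-24 h antibody detection at RT. Kinase 0.1-20 nM, peptide substrate + ATP, 0.5-5 h RT reaction in HEPES 50-250 mM, MgCl2 5-20 mM. IC50 from 4-parameter fit vs DMSO and no-kinase controls.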
A general note: In TR-FRET formats the signal depends on donor and acceptor labels being close together.

A further assay concerns the target JAK2 (Homo sapiens, UniProt O60674). Briefly: JAK kinase activity inhibition, TR-FRET (JAK2). The assay is classed as biochemical. The settings on record: TR-FRET kinase assay. Here is the method:
(§2) Experimental objective: The objective of this test is to test the inhibitory effect of the compound on JAK kinase activity.
(§3) Experimental method: the fluorescence resonance energy transfer (TR-FRET) method was used to test the inhibitory effect of the compound on JAK kinase activity, and the half inhibitory concentration IC50 of the compound on JAK kinase activity was obtained.
(§4) Kinase reaction was carried out in a white 384-well plate (PerkinElmer). 1-5 μL of different concentrations of the compound diluted with DMSO and ddH2O was added into each well, and 1-5 μL of the corresponding solvent was added to the positive control wells, followed by addition of 0.1-20 nM JAK kinase solution diluted with 1-5 μL of kinase buffer (HEPES 50-250 mM, MgCl2 5-20 mM, etc.) was added to each well. 1-5 μL of kinase buffer was added to the negative control well. 1-5 μL of substrate mixture containing peptide substrate and ATP was added. The plate was incubated at room temperature for 0.5-5 hours. […], EDTA and detection solution containing labeled antibody was added, and then the plate was incubated at room temperature for another 1-24 hours. The fluorescence signal value at about 620 nm and 665 nm of each well was measured by BioTek Synergy H1 plate reader, and the inhibition rate was calculated by the fluorescence signal value. According to the inhibition rate of different concentrations, the IC50 of the compound was obtained by curve fitting.
(§5) The percentage inhibition data of the wells treated with the compound was calculated with the positive control wells (DMSO control wells) and negative control wells (no kinase added) on the plate {% inhibition rate=100-[(test compound value-negative control value)]/(Positive control value-negative control value)×100}. IC50 value was calculated by using GraphPad prism to fit the data of different concentrations and corresponding percentage inhibition rates to a 4-parameter non-linear logic formula.

The target of another assay is JAK1 (Homo sapiens, UniProt P23458). The experiment in a line: JAK kinase activity inhibition, TR-FRET (JAK1). It counts as biochemical. Particulars: TR-FRET kinase assay. The gist of the method:
as §1

The test system of assay [1] is JAK-STAT signal pathway of U266 cells. The experiment in a line: Inhibition of cellular JAK-STAT signal pathway (STAT3 phosphorylation) in U266 cells. The assay is classed as cell-based, human. Particulars: Homo sapiens, U-266, INF-a 1000 U/mL stimulation. The gist of the method: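 U266 cells (100-300 K/well) preincubated 2 h at room temperature with serially diluted compound, then stimulated 15 min with IFN-α at 1000 U/mL final. After lysis, STAT3 phosphorylation read by LANCE Ultra TR-FRET (Eu antibody 0.5 nM, ULight antibody 5 nM, overnight) at 665 nm; IC50 from 4-parameter fit of inhibition versus DMSO and negative controls.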

A further assay addresses T1, JAK3 (Homo sapiens, UniProt P52333).
T1 sequence (P52333 1-1124): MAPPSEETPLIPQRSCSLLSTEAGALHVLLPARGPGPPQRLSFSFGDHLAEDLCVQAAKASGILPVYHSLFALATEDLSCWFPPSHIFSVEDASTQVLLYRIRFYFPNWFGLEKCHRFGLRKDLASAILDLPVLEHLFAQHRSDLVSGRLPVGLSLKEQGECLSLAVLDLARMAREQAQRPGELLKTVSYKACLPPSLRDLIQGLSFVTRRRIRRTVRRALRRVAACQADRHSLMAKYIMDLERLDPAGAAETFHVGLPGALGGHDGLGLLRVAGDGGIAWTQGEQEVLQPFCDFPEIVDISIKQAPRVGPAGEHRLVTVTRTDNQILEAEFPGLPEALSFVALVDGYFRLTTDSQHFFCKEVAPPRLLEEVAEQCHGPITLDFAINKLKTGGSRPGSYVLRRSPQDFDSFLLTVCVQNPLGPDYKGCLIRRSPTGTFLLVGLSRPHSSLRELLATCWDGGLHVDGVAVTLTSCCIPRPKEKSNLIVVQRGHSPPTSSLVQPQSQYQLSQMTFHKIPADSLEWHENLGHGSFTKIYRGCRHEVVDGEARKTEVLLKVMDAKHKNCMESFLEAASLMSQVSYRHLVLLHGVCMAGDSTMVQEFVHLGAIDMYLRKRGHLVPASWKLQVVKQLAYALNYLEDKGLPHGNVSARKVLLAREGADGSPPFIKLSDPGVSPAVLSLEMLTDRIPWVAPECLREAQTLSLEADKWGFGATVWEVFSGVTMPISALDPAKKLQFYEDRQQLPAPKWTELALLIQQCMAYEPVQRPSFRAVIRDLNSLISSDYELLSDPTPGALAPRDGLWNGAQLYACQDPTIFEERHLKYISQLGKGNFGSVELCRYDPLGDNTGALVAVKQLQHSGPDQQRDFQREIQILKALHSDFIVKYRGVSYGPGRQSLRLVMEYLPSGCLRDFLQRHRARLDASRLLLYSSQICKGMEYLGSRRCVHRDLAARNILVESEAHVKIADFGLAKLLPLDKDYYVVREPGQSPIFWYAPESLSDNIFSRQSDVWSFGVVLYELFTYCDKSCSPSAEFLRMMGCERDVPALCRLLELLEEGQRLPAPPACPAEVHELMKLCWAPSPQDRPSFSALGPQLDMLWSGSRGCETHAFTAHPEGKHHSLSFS
Briefly: JAK kinase activity inhibition, TR-FRET (JAK3). The settings on record: TR-FRET kinase assay. It counts as biochemical. The procedure:
as §2, §3, §4, §5

Chain of TYK2 (P29597 whole entry): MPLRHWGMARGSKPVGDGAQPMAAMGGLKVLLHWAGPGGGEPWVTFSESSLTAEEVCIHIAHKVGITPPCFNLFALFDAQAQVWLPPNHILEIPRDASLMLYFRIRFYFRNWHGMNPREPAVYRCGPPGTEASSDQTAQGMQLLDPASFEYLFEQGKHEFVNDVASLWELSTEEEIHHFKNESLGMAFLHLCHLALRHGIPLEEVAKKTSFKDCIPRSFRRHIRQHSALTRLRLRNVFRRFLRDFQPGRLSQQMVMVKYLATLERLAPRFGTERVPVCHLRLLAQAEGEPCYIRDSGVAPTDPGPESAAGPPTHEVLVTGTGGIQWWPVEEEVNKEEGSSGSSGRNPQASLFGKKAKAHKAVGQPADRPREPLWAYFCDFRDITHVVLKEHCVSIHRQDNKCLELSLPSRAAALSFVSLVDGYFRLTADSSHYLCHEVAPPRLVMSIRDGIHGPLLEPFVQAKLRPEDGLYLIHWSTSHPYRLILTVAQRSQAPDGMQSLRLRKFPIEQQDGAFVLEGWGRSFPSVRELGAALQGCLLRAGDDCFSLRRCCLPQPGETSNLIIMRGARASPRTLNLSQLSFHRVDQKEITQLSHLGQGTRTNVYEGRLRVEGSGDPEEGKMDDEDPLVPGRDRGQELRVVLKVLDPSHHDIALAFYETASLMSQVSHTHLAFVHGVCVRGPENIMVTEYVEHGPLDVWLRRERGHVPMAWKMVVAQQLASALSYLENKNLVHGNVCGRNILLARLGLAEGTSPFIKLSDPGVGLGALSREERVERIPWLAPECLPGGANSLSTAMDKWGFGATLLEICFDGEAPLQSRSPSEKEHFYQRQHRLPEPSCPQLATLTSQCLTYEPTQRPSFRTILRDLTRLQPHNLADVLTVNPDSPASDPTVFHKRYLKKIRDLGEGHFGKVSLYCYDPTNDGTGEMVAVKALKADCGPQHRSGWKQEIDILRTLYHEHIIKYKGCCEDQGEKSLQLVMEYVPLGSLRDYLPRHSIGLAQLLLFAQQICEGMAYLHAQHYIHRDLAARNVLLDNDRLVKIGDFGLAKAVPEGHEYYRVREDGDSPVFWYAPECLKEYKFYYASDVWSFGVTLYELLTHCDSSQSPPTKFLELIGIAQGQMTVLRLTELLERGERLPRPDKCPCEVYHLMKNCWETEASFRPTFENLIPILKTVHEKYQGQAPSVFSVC
Chain of JAK1 (P23458 whole entry): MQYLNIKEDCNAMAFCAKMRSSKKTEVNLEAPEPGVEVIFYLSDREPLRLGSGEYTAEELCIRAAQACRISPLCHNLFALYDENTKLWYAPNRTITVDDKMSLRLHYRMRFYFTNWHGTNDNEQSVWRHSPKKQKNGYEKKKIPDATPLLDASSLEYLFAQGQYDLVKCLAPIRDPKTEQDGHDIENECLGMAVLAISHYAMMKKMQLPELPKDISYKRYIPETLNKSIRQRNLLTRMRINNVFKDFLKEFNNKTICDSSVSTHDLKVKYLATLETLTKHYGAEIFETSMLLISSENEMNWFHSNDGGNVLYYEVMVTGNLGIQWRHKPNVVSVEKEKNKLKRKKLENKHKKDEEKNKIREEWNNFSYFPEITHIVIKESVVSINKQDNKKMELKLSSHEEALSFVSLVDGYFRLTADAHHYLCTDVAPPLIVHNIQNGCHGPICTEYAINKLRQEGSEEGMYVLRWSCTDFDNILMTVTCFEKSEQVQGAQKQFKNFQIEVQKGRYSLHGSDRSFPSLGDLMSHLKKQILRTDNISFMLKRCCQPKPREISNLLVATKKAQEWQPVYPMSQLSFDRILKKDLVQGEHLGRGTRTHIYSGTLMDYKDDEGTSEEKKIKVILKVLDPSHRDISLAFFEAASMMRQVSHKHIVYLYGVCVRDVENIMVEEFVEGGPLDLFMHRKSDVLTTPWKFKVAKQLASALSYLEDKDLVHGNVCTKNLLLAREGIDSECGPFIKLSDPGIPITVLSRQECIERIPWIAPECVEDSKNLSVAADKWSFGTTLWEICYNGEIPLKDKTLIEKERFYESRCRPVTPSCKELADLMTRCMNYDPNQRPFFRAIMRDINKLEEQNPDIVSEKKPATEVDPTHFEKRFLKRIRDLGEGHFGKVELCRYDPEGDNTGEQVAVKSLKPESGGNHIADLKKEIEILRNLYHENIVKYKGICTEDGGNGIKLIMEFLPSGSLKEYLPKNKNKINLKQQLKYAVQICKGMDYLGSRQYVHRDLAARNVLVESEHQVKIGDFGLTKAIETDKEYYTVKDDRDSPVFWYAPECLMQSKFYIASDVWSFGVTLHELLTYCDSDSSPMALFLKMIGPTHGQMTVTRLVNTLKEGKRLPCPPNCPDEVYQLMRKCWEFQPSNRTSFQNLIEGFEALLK
Chain of JAK2 (O60674 whole entry): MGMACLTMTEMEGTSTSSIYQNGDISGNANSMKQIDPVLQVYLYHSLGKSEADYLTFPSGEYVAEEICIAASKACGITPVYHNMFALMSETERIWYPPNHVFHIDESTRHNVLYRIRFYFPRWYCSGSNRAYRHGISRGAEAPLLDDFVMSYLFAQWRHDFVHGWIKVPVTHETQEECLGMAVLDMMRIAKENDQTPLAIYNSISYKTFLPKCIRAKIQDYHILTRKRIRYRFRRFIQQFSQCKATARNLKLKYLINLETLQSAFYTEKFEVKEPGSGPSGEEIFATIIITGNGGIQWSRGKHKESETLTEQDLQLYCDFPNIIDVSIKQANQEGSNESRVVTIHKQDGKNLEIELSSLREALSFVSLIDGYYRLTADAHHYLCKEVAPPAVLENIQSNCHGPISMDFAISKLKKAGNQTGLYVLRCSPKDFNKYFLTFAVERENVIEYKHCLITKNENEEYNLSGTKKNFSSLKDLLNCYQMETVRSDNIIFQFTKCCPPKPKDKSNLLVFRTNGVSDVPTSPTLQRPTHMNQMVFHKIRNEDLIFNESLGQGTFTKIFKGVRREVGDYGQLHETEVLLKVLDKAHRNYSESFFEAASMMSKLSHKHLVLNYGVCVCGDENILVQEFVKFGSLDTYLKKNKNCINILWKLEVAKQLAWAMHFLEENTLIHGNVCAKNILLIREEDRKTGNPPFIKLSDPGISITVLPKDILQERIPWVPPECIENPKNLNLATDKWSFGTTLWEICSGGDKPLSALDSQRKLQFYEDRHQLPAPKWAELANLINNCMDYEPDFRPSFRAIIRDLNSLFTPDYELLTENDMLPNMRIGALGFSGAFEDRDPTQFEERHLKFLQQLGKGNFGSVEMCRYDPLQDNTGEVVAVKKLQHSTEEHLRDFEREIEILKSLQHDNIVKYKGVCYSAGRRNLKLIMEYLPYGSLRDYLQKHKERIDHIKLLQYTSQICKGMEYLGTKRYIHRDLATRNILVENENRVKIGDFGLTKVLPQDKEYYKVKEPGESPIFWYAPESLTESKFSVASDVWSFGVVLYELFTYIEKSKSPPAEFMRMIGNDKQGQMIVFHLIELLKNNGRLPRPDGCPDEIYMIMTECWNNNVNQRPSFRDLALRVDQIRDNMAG

What is called IC50 is the concentration that inhibits the measured activity by half. For `N#CCCN1[C@@H]2CC[C@H]1C[C@H](Nc1nc(Nc3cc(CO)[nH]n3)c3ccsc3n1)C2` [Embodiment 273], the 50% inhibitory concentration (IC50) was 2.19 nM on TYK2; 2.96 nM on JAK2; 1.28 nM on JAK1; 41.9 nM in assay [1]; > 200 nM at JAK3.

As to `Cc1cc(Nc2nc(N[C@@H]3C[C@H]4CC[C@@H](C3)N4CCC#N)nc3cc(-c4cnn(C)c4)ccc23)n[nH]1` [Embodiment 186, 3-((3-exo)-3-((4-((5-methyl-1H-pyrazol-3-yl)amino)-7-(1-methyl-1H-pyrazol-4-yl)quinazolin-2-yl)amino)-8-azabicyclo[3.2.1]oct-8-yl)propionitrile], the IC50 was 0.2 nM on TYK2, 0.73 nM at JAK2, 0.12 nM on JAK1 and 14.7 nM at JAK3.

In the case of `Cc1cc(Nc2nc(N[C@@H]3C[C@H]4CC[C@@H](C3)N4CCC#N)nc3ccccc23)n[nH]1` [Embodiment 4, 3-((3-exo)-3-((4-((5-methyl-1H-pyrazol-3-yl)amino)quinazolin-2-yl)amino)-8-azabicyclo[3.2.1]oct-8-yl)propionitrile], the half-inhibitory concentration (IC50) at TYK2 was determined as 0.68 nM; on JAK2, 0.55 nM; on JAK1, 0.86 nM; in assay [1], 2.6 nM; at JAK3, 5.72 nM.

As for `CN(c1nc(Nc2cc(CO)[nH]n2)c2ccsc2n1)[C@@H]1C[C@H]2CCC[C@@H](C1)N2S(=O)(=O)N1CC(C#N)C1` [Embodiment 132, 1-(((3-exo)-3-((4-((5-(hydroxymethyl)-1H-pyrazol-3-yl)amino)thieno[2,3-d]pyrimidin-2-yl)(methyl)amino)-9-azabicyclo[3.3.1]non-9-yl)sulfonyl)azetindin-3-formonitrile], the IC50 at TYK2 worked out at 0.42 nM; on JAK2 it was 0.77 nM; on JAK1, 0.1 nM; in assay [1], 23.8 nM; on JAK3, 3.43 nM.

For `Cc1cc(Nc2cc3ncccc3c(N[C@@H]3C[C@@H]4CN(CCC#N)C[C@@H]4C3)n2)n[nH]1` [Embodiment 5, 3-(cis-5-((7-((5-methyl-1H-pyrazol-3-yl)amino)-1,6-diazanaphthalen-5-yl)amino)hexahydrocyclopentadieno[c]pyrrole-2(1H)-yl)propionitrile], the concentration for half-maximal inhibition (IC50) was found to be 4.44 nM at TYK2; 1.39 nM at JAK2; 0.85 nM at JAK1; 4.12 nM in assay [1]; 26.5 nM at JAK3.

Regarding `Cc1cc(Nc2nc(N(C)[C@@H]3C[C@H]4CCC[C@@H](C3)N4S(=O)(=O)N3CC(C#N)C3)nc3sccc23)n[nH]1` [Embodiment 239, 1-(((3-exo)-3-(methyl(4-((5-methyl-1H-pyrazol-3-yl)amino)thieno[2,3-d]pyrimidin-2-yl)amino)-9-azabicyclo[3.3.1]non-9-yl)sulfonyl)azacyclobutane-3-nitrile], the IC50 on TYK2 worked out at 0.22 nM; on JAK2, 1.25 nM; on JAK1, 0.13 nM; in assay [1], 39 nM; on JAK3, 3.11 nM.

Take `Cc1cc(Nc2nc(N(C)[C@@H]3C[C@H]4CC[C@@H](C3)N4S(=O)(=O)N3CC(C#N)C3)nc3sccc23)n[nH]1` [Embodiment 241, 1-(((3-exo)-3-(methyl(4-((5-methyl-1H-pyrazol-3-yl)amino)thieno[2,3-d]pyrimidin-2-yl)amino)-8-azabicyclo[3.2.1]oct-8-yl)sulfonyl)azetindin-3-formonitrile]: the IC50 at TYK2 came out at 0.22 nM; at JAK2, 1.39 nM; on JAK1, 0.15 nM; in assay [1] it was 115 nM; on JAK3, 7.35 nM.

With `COc1ccc2c(Nc3cc(C)[nH]n3)nc(N[C@@H]3C[C@H]4CCC[C@@H](C3)N4S(=O)(=O)N3CC(C#N)C3)nc2c1` [Embodiment 219, 1-(((3-exo)-3-((7-methoxyl-4-((5-methyl-1H-pyrazol-3-yl)amino)quinazolin-2-yl)amino)-9-azabicyclo[3.3.1]non-9-yl)sulfonyl)azetindin-3-formonitrile], the IC50 came to 0.13 nM at TYK2; 0.76 nM on JAK2; 0.09 nM at JAK1; 117 nM in assay [1]; 2.61 nM at JAK3.

In the case of `Cc1cc(Nc2nc(N[C@@H]3C[C@H]4CC[C@@H](C3)N4C(=O)CN(C)C)nc3sccc23)n[nH]1` [Embodiment 243, 2-(dimethylamine)-1-((3-exo)-3-((4-((5-methyl-1H-pyrazol-3-yl)amino)thieno[2,3-d]pyrimidin-2-yl)amino)-8-azabicyclo[3.2.1]oct-8-yl)ethane-1-one], the IC50 on TYK2 turned out to be 1.48 nM; on JAK2, 2.42 nM; on JAK1 it was 0.53 nM; in assay [1], 0.24 nM; on JAK3, 148 nM.

For the compound `Cc1cc(Nc2nc(N[C@@H]3C[C@H]4CC[C@@H](C3)N4CCC#N)nc3[nH]ccc23)n[nH]1` [Embodiment 3, 3-((3-exo)-3-((4-((5-methyl-1H-pyrazol-3-yl)amino)-7H-pyrrolo[2,3-d]pyrimidin-2-yl)amino)-8-azabicyclo[3.2.1]oct-8-yl)propionitrile], the IC50 amounted to 0.17 nM at TYK2; 0.29 nM at JAK2; 0.11 nM at JAK1; 4.5 nM in assay [1]; 0.81 nM on JAK3.

With `N#CCCN1[C@@H]2CC[C@H]1C[C@H](Nc1nc(Nc3cnccn3)cc3ncccc13)C2` [Embodiment 29, 3-((3-exo)-3-((7-(pyrazin-2-ylamino)-1,6-diazanaphthalen-5-yl)amino)-8-azabicyclo[3.2.1]oct-8-yl)propionitrile], the IC50 was 47.3 nM at TYK2, > 100 nM on JAK2, 44.2 nM at JAK1 and > 100 nM at JAK3.

As to `N#CCCN1[C@@H]2CC[C@H]1C[C@H](Nc1nc(Nc3ncc(CO)s3)cc3ncccc13)C2` [Embodiment 2], the IC50 at TYK2 was found to be 2.3 nM; at JAK2, 0.53 nM; at JAK1, 0.11 nM; at JAK3 it was 8.95 nM.

For `Cc1cc(Nc2nc(N[C@@H]3C[C@H]4CC[C@@H](C3)N4CCC#N)nc3cnccc23)n[nH]1` [Embodiment 173, 3-((3-exo)-3-((4-((5-methyl-1H-pyrazol-3-yl)amino)pyrido[3,4-d]pyrimidin-2-yl)amino)-8-azabicyclo[3.2.1]oct-8-yl)propionitrile], the half-inhibitory concentration (IC50) on TYK2 came to 0.84 nM; on JAK2, 1.15 nM; on JAK1 it was 1.07 nM; on JAK3, 26.3 nM.
